These results are taken from US9200005B2, “Inhibitor compounds of phosphodiesterase type 10A” (AbbVie Deutschland GmbH & Co. KG, priority 2013, dated 2015).

Structures can show the parent of a compound that is named as a salt.

The target in one data set is PDE10A (UniProt Q9Y233). The data set is described as follows: Measurement of PDE activity (HTRF cAMP kit, recombinant PDE10A). Format: biochemical, human, rat and mouse. The settings on record: substrate 20 nM, 60 minutes at 29° C. The method, then:
a) Measurement of PDE Activity
The recombinant PDE proteins are used in in vitro enzymatic reaction for measurement of PDE activity. These recombinant proteins, including PDE10A (human, rat and mouse PDE10) and isoforms of PDEs 1, 3, 4, and 5, were purchased from commercial vendor BPS Bioscience. The enzymatic activity of PDEs was determined by cAMP measurement kit from CisBio (IBA) using HTRF technology.
The PDE enzymatic reaction was carried out in assay buffer (20 mM Tris-HCl pH 7.5, 10 mM MgCl2, 0.1% bovine serum albumin) containing enzyme and substrate. […] The substrate cyclic nucleotide (cAMP or cGMP) concentration used in the assay was 20 nM for PDE10, and 100 nM for other PDEs. The inhibitory effect of compound was determined by incubating various concentration of inhibitor in the enzymatic assay. […] Next, the compound at varying concentration was mixed with PDE enzyme. The reaction was initiated by addition of cyclic nucleotide substrate, and incubated for 60 minutes at 29° C. The reaction was stopped by addition of lysis buffer from the assay kit. The cAMP-d2 and anti-cAMP cryptate in the lysis buffer detected the level of cAMP left from the PDE hydrolysis reaction. […] Thus, IC50 value of inhibitor can be obtained by plotting inhibitor concentration against PDE activity at that concentration.
Background: Time-resolved FRET reads energy transfer from a long-lived donor to a nearby acceptor.

Data set [1] is described as follows: Determination of the microsomal half-life / microsomal clearance, rat liver microsomes. The data set is classed as in vitro ADME. The settings on record: 0.5 μM test substance, 0.25 mg of microsomal protein/mL, NADPH, 37° C. As for the experimental part:
(§1) b) Determination of the Microsomal Half-Life:
(§2) The metabolic stability of the compounds of the invention was determined in the following assay.
(§3) The test substances were incubated in a concentration of 0.5 μM as follows:
(§4) 0.5 μM test substance are preincubated together with liver microsomes from different species (from rat, human or other species) (0.25 mg of microsomal protein/mL) in 0.05 M potassium phosphate buffer of pH 7.4 in microtiter plates at 37° C. for 5 min. The reaction is started by adding NADPH (1 mg/mL). After 0, 5, 10, 15, 20 and 30 min, 50 μl aliquots are removed, and the reaction is immediately stopped and cooled with the same volume of acetonitrile. The samples are frozen until analyzed. The remaining concentration of undegraded test substance is determined by MSMS. The half-life (T½) is determined from the gradient of the signal of test substance/unit time plot, it being possible to calculate the half-life of the test substance, assuming first order kinetics, from the decrease in the concentration of the compound with time. The microsomal clearance (mCl) is calculated from mCl=ln 2/T½/(content of microsomal protein in mg/mL)×1000 [mL/min/mg] (modified from references: Di, The Society for Biomoleculur Screening, 2003, 453-462; Obach, DMD, 1999 vol 27. N 11, 1350-1359).
(In general: Liver microsomes are vesicles of endoplasmic reticulum, rich in cytochrome P450 enzymes.)

Data set [2] can be described thus: Determination of the microsomal half-life / microsomal clearance, human liver microsomes. The data set is classed as in vitro ADME. The settings on record: 0.5 μM test substance, 0.25 mg of microsomal protein/mL, NADPH, 37° C. As for the experimental part:
as §1, §2, §3, §4

For orientation: IC50 means the midpoint of a concentration-inhibition curve. Turning to `Cn1nc(-c2ccncc2)c2scc(-c3cncnc3)c2c1=O` [Example 6, 5-methyl-7-(pyridin-4-yl)-3-(pyrimidin-5-yl)thieno[2,3-d]pyridazin-4(5H)-one], on PDE10A, the IC50 is below 100 nM.

Take `Cn1nc(-c2ccncc2)c2scc(-c3cnn(Cc4ccccc4)c3)c2c1=O.O=C(O)C(F)(F)F.O=C(O)C(F)(F)F` [Example 41, 3-(1-benzyl-1H-pyrazol-4-yl)-5-methyl-7-(pyridin-4-yl)thieno[2,3-d]pyridazin-4(5H)-one bis(trifluoroacetate)]: in data set [1], the “Rat mCl” value is “++ (++: <100 μl min^−1 mg^−1)”. Further, the “Human mCl” value in data set [2] was “+ (+: 100-220 μl min^−1 mg^−1)”.

As for `CN1CCN(Cc2cccc(-c3csc4c(-c5ccncc5)nn(C)c(=O)c34)c2)CC1.O=C(O)C(F)(F)F.O=C(O)C(F)(F)F.O=C(O)C(F)(F)F` [Example 42, 5-methyl-3-{3-[(4-methylpiperazin-1-yl)methyl]phenyl}-7-(pyridin-4-yl)thieno[2,3-d]pyridazin-4(5H)-one tris(trifluoroacetate)], in data set [1], the “Rat mCl” value is reported as “++ (++: <100 μl min^−1 mg^−1)”. Moreover, in data set [2], the “Human mCl” value was “+ (+: 100-220 μl min^−1 mg^−1)”. On to `CN1CCN(Cc2ccc(-c3csc4c(-c5ccncc5)nn(C)c(=O)c34)cc2)CC1.O=C(O)C(F)(F)F.O=C(O)C(F)(F)F.O=C(O)C(F)(F)F` [Example 43, 5-methyl-3-{4-[(4-methylpiperazin-1-yl)methyl]phenyl}-7-(pyridin-4-yl)thieno[2,3-d]pyridazin-4(5H)-one tris(trifluoroacetate)], for which the “Rat mCl” value in data set [1] is recorded as “++ (++: <100 μl min^−1 mg^−1)”. In data set [2], the “Human mCl” value was “++ (++: <100 μl min^−1 mg^−1)”.

In the case of `Cn1nc(N2CCCCC2)c2scc(-c3ccncc3)c2c1=O` [Example 47, 5-methyl-7-(piperidin-1-yl)-3-(pyridin-4-yl)thieno[2,3-d]pyridazin-4(5H)-one], the “Rat mCl” value in data set [1] is listed as “+ (+: 100-220 μl min^−1 mg^−1)”. For the same molecule, in data set [2], the “Human mCl” value is recorded as “+ (+: 100-220 μl min^−1 mg^−1)”. In the case of `CN1CCN(c2nn(C)c(=O)c3c(-c4ccncc4)csc23)CC1` [Example 49, 5-methyl-7-(4-methylpiperazin-1-yl)-3-(pyridin-4-yl)thieno[2,3-d]pyridazin-4(5H)-one], the “Rat mCl” value in data set [1] was “++ (++: <100 μl min^−1 mg^−1)”. Besides, in data set [2], the “Human mCl” value was “++ (++: <100 μl min^−1 mg^−1)”.

In the case of `Cn1nc(OC2CCCCC2)c2scc(-c3ccncc3)c2c1=O.O=C(O)C(F)(F)F` [Example 53, 7-(cyclohexyloxy)-5-methyl-3-(pyridin-4-yl)thieno[2,3-d]pyridazin-4(5H)-one trifluoroacetate], the “Rat mCl” value in data set [1] is “+ (+: 100-220 μl min^−1 mg^−1)”. Also, the “Human mCl” value in data set [2] is “++ (++: <100 μl min^−1 mg^−1)”.

Regarding `Cn1ccnc1COc1nn(C)c(=O)c2c(-c3ccncc3)csc12` [Example 56, 5-methyl-7-[(1-methyl-1H-imidazol-2-yl)methoxy]-3-(pyridin-4-yl)thieno[2,3-d]pyridazin-4(5H)-one], at PDE10A, the half-inhibitory concentration (IC50) was 200 to 500 nM. Turning to `Cn1nc(OCC2CCCCC2)c2scc(-c3ccncc3)c2c1=O` [Example 57, 7-(cyclohexylmethoxy)-5-methyl-3-(pyridin-4-yl)thieno[2,3-d]pyridazin-4(5H)-one], the “Rat mCl” value in data set [1] is recorded as “+ (+: 100-220 μl min^−1 mg^−1)”. The “Human mCl” value in data set [2] is “+ (+: 100-220 μl min^−1 mg^−1)”.

`Cn1nc(OC2Cc3ccccc3C2)c2scc(-c3ccncc3)c2c1=O` [Example 60, 7-(2,3-dihydro-1H-inden-2-yloxy)-5-methyl-3-(pyridin-4-yl)thieno[2,3-d]pyridazin-4(5H)-one trifluoroacetate]: the IC50 on PDE10A fell in the range of 200 to 500 nM. For the molecule `CC(C)c1cccc(COc2nn(C)c(=O)c3c(-c4ccncc4)csc23)c1.O=C(O)C(F)(F)F` [Example 65, 5-methyl-7-{[3-(propan-2-yl)benzyl]oxy}-3-(pyridin-4-yl)thieno[2,3-d]pyridazin-4(5H)-one trifluoroacetate], in data set [1], the “Rat mCl” value is “+ (+: 100-220 μl min^−1 mg^−1)”. Besides, the “Human mCl” value in data set [2] is “∘ (∘ not avialable or >220 μl min^−1 mg^−1)”. In the case of `Cn1nc(OCC2CCC(F)(F)CC2)c2scc(-c3ccncc3)c2c1=O` [Example 66, 7-[(4,4-difluorocyclohexyl)methoxy]-5-methyl-3-(pyridin-4-yl)thieno[2,3-d]pyridazin-4(5H)-one], in data set [1], the “Rat mCl” value is given as “++ (++: <100 μl min^−1 mg^−1)”. In addition, the “Human mCl” value in data set [2] is reported as “++ (++: <100 μl min^−1 mg^−1)”. Regarding `Cn1nc(OCc2nc3ccccc3s2)c2scc(-c3ccncc3)c2c1=O` [Example 71, 7-(1,3-benzothiazol-2-ylmethoxy)-5-methyl-3-(pyridin-4-yl)thieno[2,3-d]pyridazin-4(5H)-one trifluoroacetate], the IC50 on PDE10A was below 100 nM. As for `Cn1nc(OCc2ccc(Cl)c(Cl)c2)c2scc(-c3ccncc3)c2c1=O` [Example 77, 7-[(3,4-dichlorobenzyl)oxy]-5-methyl-3-(pyridin-4-yl)thieno[2,3-d]pyridazin-4(5H)-one], the “Rat mCl” value in data set [1] was “++ (++: <100 μl min^−1 mg^−1)”. For the same molecule, in data set [2], the “Human mCl” value is given as “+ (+: 100-220 μl min^−1 mg^−1)”. On the same counts, the results for `Cn1nc(OCC2CCN(C(=O)OC(C)(C)C)CC2)c2scc(-c3ccncc3)c2c1=O` [Example 79, tert-butyl 4-({[5-methyl-4-oxo-3-(pyridin-4-yl)-4,5-dihydrothieno[2,3-d]pyridazin-7-yl]oxy}methyl)piperidine-1-carboxylate] are “+ (+: 100-220 μl min^−1 mg^−1)” and “+ (+: 100-220 μl min^−1 mg^−1)”. On the same counts, the results for `Cn1nc(OCc2ccc3c(c2)CN(C(=O)OC(C)(C)C)C3)c2scc(-c3ccncc3)c2c1=O` [Example 80, tert-butyl 5-({[5-methyl-4-oxo-3-(pyridin-4-yl)-4,5-dihydrothieno[2,3-d]pyridazin-7-yl]oxy}methyl)-1,3-dihydro-2H-isoindole-2-carboxylate] are “++ (++: <100 μl min^−1 mg^−1)” and “++ (++: <100 μl min^−1 mg^−1)”. On the same counts, the results for `Cn1nc(-c2ccccc2C(N)=O)c2scc(-c3ccncc3)c2c1=O` [Example 98, 2-[5-methyl-4-oxo-3-(pyridin-4-yl)-4,5-dihydrothieno[2,3-d]pyridazin-7-yl]benzamide] are “++ (++: <100 μl min^−1 mg^−1)” and “++ (++: <100 μl min^−1 mg^−1)”. As for `Cn1nc(-c2ccc(OC(F)(F)F)cc2)c2scc(-c3ccncc3)c2c1=O` [Example 101, 5-methyl-3-(pyridin-4-yl)-7-[4-(trifluoromethoxy)phenyl]thieno[2,3-d]pyridazin-4(5H)-one], the “Rat mCl” value in data set [1] is recorded as “++ (++: <100 μl min^−1 mg^−1)”. Also, the “Human mCl” value in data set [2] is “++ (++: <100 μl min^−1 mg^−1)”. Turning to `Cn1nc(OCC2CCNCC2)c2scc(-c3ccncc3)c2c1=O.O=C(O)C(F)(F)F` [Example 125, 5-methyl-7-(piperidin-4-ylmethoxy)-3-(pyridin-4-yl)thieno[2,3-d]pyridazin-4(5H)-one bis(trifluoroacetate)], the “Rat mCl” value in data set [1] was “++ (++: <100 μl min^−1 mg^−1)”. For the same molecule, the “Human mCl” value in data set [2] is “++ (++: <100 μl min^−1 mg^−1)”. Take `N#Cc1cccc(-c2csc3c(-c4ccncc4)nn(CC(F)(F)F)c(=O)c23)c1` [Example 129, 3-[4-oxo-7-(pyridin-4-yl)-5-(2,2,2-trifluoroethyl)-4,5-dihydrothieno[2,3-d]pyridazin-3-yl]benzonitrile]: the “Rat mCl” value in data set [1] is given as “++ (++: <100 μl min^−1 mg^−1)”. In addition, in data set [2], the “Human mCl” value is “++ (++: <100 μl min^−1 mg^−1)”. For `CC(C)(C)n1nc(-c2ccncc2)c2scc(-c3ccncc3)c2c1=O` [Example 132, 5-tert-butyl-3,7-di(pyridin-4-yl)thieno[2,3-d]pyridazin-4(5H)-one], the “Rat mCl” value in data set [1] is reported as “++ (++: <100 μl min^−1 mg^−1)”. Moreover, in data set [2], the “Human mCl” value is “+ (+: 100-220 μl min^−1 mg^−1)”. In the case of `O=c1c2c(-c3ccncc3)csc2c(-c2ccncc2)nn1C1CCCC1` [Example 134, 5-cyclopentyl-3,7-di(pyridin-4-yl)thieno[2,3-d]pyridazin-4(5H)-one], in data set [1], the “Rat mCl” value is recorded as “+ (+: 100-220 μl min^−1 mg^−1)”. Also, the “Human mCl” value in data set [2] was “∘ (∘ not avialable or >220 μl min^−1 mg^−1)”. With `O=c1c2c(-c3ccncc3)csc2c(-c2ccncc2)nn1CC1CCCO1` (stereo not drawn) [Example 141, 3,7-di(pyridin-4-yl)-5-(tetrahydrofuran-2-ylmethyl)thieno[2,3-d]pyridazin-4(5H)-one], in data set [1], the “Rat mCl” value is listed as “++ (++: <100 μl min^−1 mg^−1)”. Moreover, the “Human mCl” value in data set [2] is recorded as “+ (+: 100-220 μl min^−1 mg^−1)”.
